Data as given in publication PMC10906223 (JCI Insight, 2024).
Values joined by “and” are separate entries in the source; they are usually repeats but may differ in a detail not shown here. Identical values can stand only once.

What was measured:
[1] = test system: human donor dispersed islet cells; assay: Somatostatin secretion from non-diabetic human donor dispersed islet cells; type: cell-based
Experimental: Pancreata of nondiabetic C57BL/6J mice were digested using collagenase P (Roche Diagnostics, catalog 11213873001), and islets were manually picked up using a stereomicroscope (ZEISS Stemi 305). […] Isolated mouse islets or provided human islets were dispersed as described ([28]). Briefly, 100–120 islets were washed 2 times using modified HBSS, then dispersed in 600 μL Accutase (Innovative Cell Technologies, catalog AT-104) by gently pipetting up and down for 7 minutes at 37°C. […] Following refreshing of KRBH, cells were dispensed in 8 microfuge tubes (2,000 cells/tube) and treated with WCDD301, preclustered Ephrin-A5 Fc, or preclustered Fc in the presence or absence of the competitive inhibitor of EphA4 receptor, rhyncophylline ([60]) (MilliporeSigma, catalog SML2345). In the presence or absence of these effectors, secretion assay was performed sequentially as shown in Supplemental Table 5. […] Preclustering of Ephrin-A5 Fc was done by mixing Ephrin-A5 Fc or Fc alone (BioLegend, catalog 790102) with anti-Fc antibody (Invitrogen, catalog A16086) (1:10 molar ratio) 20 minutes before treatment ([62]). […] Shedding of cleaved EphA4 was measured from the cell culture medium. Experiments were performed by dispersion of 200 islets, and EphA4 levels in media were measured by EphA4 ELISA (ABclonal, catalog RK06572).
The Integrated Islet Distribution Program provided us human donor islets with their characteristics (Supplemental Table 6). Islets were centrifuged at 500g for 3 minutes, resuspended in CMRL 1066 medium (Gibco, catalog 1150-037) containing 11 mM glucose, and rested in an incubator overnight.
For the hormone secretion assay, islets or dispersed islet cells were adapted in KRBH buffer containing 11 mM glucose for 1 hour. Then, after 2 washes in HBSS containing 11 mM glucose, islets or cells were treated in the following sequential order in the presence or absence of WCDD301: incubation in KRBH (1 mM glucose, 30 minutes) followed by medium collection, incubation in KRBH (11 mM glucose, 30 minutes) followed by medium collection.

[2] = test system: STZ-induced diabetic mice; assay: Blood glucose in STZ-induced diabetic mice, once-daily oral WCDD301; type: in vivo, mouse; design: Blood glucose: unit: mg/dL; conditions: for Blood glucose: WCDD301 10 mg/kg oral once daily, 10 mg/kg
Experimental: Six cohorts of C57BL/6 mice (n = 10 each, equal numbers of females and males; the Jackson Laboratory) were fasted for 5 hours and injected intraperitoneally with 40 mg/kg STZ solution (MilliporeSigma, catalog 572201) for 5 consecutive days. STZ solution (40 mg/mL) was prepared within 5 minutes before injection using freshly prepared citrate buffer (0.1 M, pH 4.5). Nine days after the last injection, blood glucose levels were measured for 2 consecutive days, and those animals with constant values of 300 ± 20 mg/dL were considered as having early severe hyperglycemia.
We prepared sustained time-release pearls for oral administration in the mouse models. To this end, we combined FDA-approved excipients of Eastman BioSustane SAIB NF (product code: 41271-00, sample distribution from Eastman Company, Kingsport, Tennessee, USA; provided by Phillip Cook) and Agar (Lamda Biotech, catalog C110) at the ratio of 1:1.45 (w/w). We also prepared another type of sustained time-release pearl by mixing SAIB, Agar, and L (-) malic acid (MilliporeSigma, catalog 202-601-5) at the ratio of 1:1.4:0.2 (w/w/w). A homogenous paste mixture was prepared, and pearls were formed with 50–60 mg weight and approximately 2 mm diameter by pinching off the mixture and manually rolling.
(§1) We preweighed WCDD301 into microfuge tubes and reconstituted it using deionized water. Using a 10 μL pipette tip, we placed the calculated dose of WCDD301 (at the volume range of 1–1.5 μL) within the center of pearls. WCDD301 was placed into pearls 30–45 minutes before administration. For oral administration of pearls, we designed an applicator using a disposable plastic transfer pipette and syringe plunger lubricated with olive oil. Food intake and body weight in each experimental group (diabetic WCDD301-treated, diabetic placebo-treated, and nondiabetic placebo-treated NOD mice) were monitored daily for 4 weeks. Urine glucose was measured from individually caged NOD mice (nondiabetic placebo treated n = 2, diabetic placebo treated n = 2, and diabetic WCDD301 treated n = 4, 21–23 weeks old) with metabolic cages. Urine glucose was monitored every 24 hours for 10 days by semiquantitative measurements (P-STICKS, Millpledge Veterinary).
We applied the following therapeutic regimens in the fed state for oral dosing of pearls containing WCDD301. The therapeutic regimen for diabetic NOD mice with moderate hyperglycemia (n = 6–9; 6 females/3 males) or nondiabetic ones with blood glucose levels of < 140 mg/dL (females, n = 5) was dose 7.5 mg/kg, dosage once a day, and excipient SAIB-Agar, 50–60 mg. The therapeutic regimen for STZ-induced diabetic mice with early severe hyperglycemia (n = 3, placebo group; n = 4 treatment group, females) was dose 10 mg/kg, dosage once a day, and excipient SAIB-Agar-malic acid, 50–60 mg.

diabetic NOD mice [3] = assay: Plasma glutamine in NOD mice; type: in vivo, mouse; conditions: WCDD301 group of NOD mice; quantity not given
Experimental: Terminal blood was collected into microfuge tubes containing K2-EDTA (supplemented by 45 mM phenylmethylsulphonyl fluoride and 0.77 μM aprotinin) through cardiac puncture. Plasma was separated by centrifugation (2,000g for 10 minutes at 4°C) and kept at –80°C until analysis. Plasma samples with hemolysis were excluded from the study. […] Values of BUN, creatinine, ALB, ALT, and AST were determined by a Roche Cobas C501 Autoanalyzer as performed by the Washington University Diabetes Research Center Translational Diagnostics Core. Reference intervals of blood chemistry parameters for inbred NOD mice were extracted from the Mouse Phenome Database (https://phenome.jax.org/).

diabetic NOD mice [4] = assay: Daily body weight in NOD mice; type: in vivo, mouse; conditions: for Daily body weight (Figure 7F): Diabetic, WCDD301 treated, in g (unit assumed)
Experimental: as §1

In the case of `CC(=O)OCC(N)(COC(C)=O)COC(C)=O` [WCDD301, 2-(acetoxymethyl)-2-aminopropane-1,3-diyl diacetate], the “Effect on somatostatin secretion” value ([1]; 1, 3 or 6 hours, Supplemental Figure 4A-C) is reported as “no effect on somatostatin secretion”, the “Somatostatin secretion (Supplemental Figure 4D; quantity not given)” value ([1]; WCDD301) is reported as 1740.7 and 1280.5 and 1500.0 and the Effect on hyperglycemia ([2]; 4-week dosing) is reported as “normalized hyperglycemia”. The Blood glucose ([2]; Week 1, per mouse, before dosing 277-300, Figure 6F) was 205 and 210 and 206 and 240, the Blood glucose ([2]; Week 2, per mouse, Figure 6F) was 180 and 170 and 145 and 210 and the Blood glucose ([2]; Week 3, per mouse, Figure 6F) was 145 and 150 and 135 and 156. For the same molecule, the Blood glucose ([2]; Week 4, per mouse, Figure 6F) was 125 and 119 and 121 and 130, the “Plasma glutamine (Figure 7B)” value (diabetic NOD mice [3]) was 0.7 and 0.74 and 0.65 and 0.71 and the “Daily body weight (Figure 7F)” value (diabetic NOD mice [4]; Day 1) was 22.8 and 23.7 and 24.1 and 24.7. For the same molecule, the “Daily body weight (Figure 7F)” value (diabetic NOD mice [4]; Day 2) was 23 and 23.9 and 24.3 and 25.3, the “Daily body weight (Figure 7F)” value (diabetic NOD mice [4]; Day 3) was 22.6 and 23.4 and 23.9 and 25.3 and the “Daily body weight (Figure 7F)” value (diabetic NOD mice [4]; Day 7) was 22.3 and 23.1 and 23.5 and 24.7. For the same molecule, the “Daily body weight (Figure 7F)” value (diabetic NOD mice [4]; Day 8) was 22.3 and 23.1 and 23.5 and 24.8, the “Daily body weight (Figure 7F)” value (diabetic NOD mice [4]; Day 9) was 22.6 and 23.4 and 23.9 and 24.8 and the “Daily body weight (Figure 7F)” value (diabetic NOD mice [4]; Day 10) was 22.3 and 23.1 and 23.5 and 24.6. The “Daily body weight (Figure 7F)” value (diabetic NOD mice [4]; Day 11) was 22.3 and 23.1 and 23.5 and 25.1, the “Daily body weight (Figure 7F)” value (diabetic NOD mice [4]; Day 12) was 22.4 and 23.2 and 23.7 and 25.4 and the “Daily body weight (Figure 7F)” value (diabetic NOD mice [4]; Day 13) was 22.5 and 23.3 and 23.8 and 25.3. The “Daily body weight (Figure 7F)” value (diabetic NOD mice [4]; Day 14) was 22.6 and 23.4 and 23.9 and 25.2, the “Daily body weight (Figure 7F)” value (diabetic NOD mice [4]; Day 15) was 22.9 and 23.8 and 24.2 and 24.7 and the “Daily body weight (Figure 7F)” value (diabetic NOD mice [4]; Day 16) was 23.1 and 24 and 24.4 and 25.6. For the same molecule, the “Daily body weight (Figure 7F)” value (diabetic NOD mice [4]; Day 17) was 23 and 23.9 and 24.3 and 25.3, the “Daily body weight (Figure 7F)” value (diabetic NOD mice [4]; Day 18) was 22.8 and 23.7 and 24.1 and 25.2 and the “Daily body weight (Figure 7F)” value (diabetic NOD mice [4]; Day 19) was 22.4 and 23.2 and 23.7 and 25.1. The “Daily body weight (Figure 7F)” value (diabetic NOD mice [4]; Day 20) was 22.6 and 23.4 and 23.9 and 25.7, the “Daily body weight (Figure 7F)” value (diabetic NOD mice [4]; Day 21) was 22.5 and 23.3 and 23.8 and 25.1 and the “Daily body weight (Figure 7F)” value (diabetic NOD mice [4]; Day 22) was 22.6 and 23.4 and 23.9 and 25.1. For the same molecule, the “Daily body weight (Figure 7F)” value (diabetic NOD mice [4]; Day 23) was 22.4 and 23.2 and 23.7 and 25.1, the “Daily body weight (Figure 7F)” value (diabetic NOD mice [4]; Day 24) was 22.5 and 23.3 and 23.8 and 25.1 and the “Daily body weight (Figure 7F)” value (diabetic NOD mice [4]; Day 25) was 22.5 and 23.3 and 23.8 and 25.2. For the same molecule, the “Daily body weight (Figure 7F)” value (diabetic NOD mice [4]; Day 26) was 22.3 and 23.1 and 23.5 and 25.4, the “Daily body weight (Figure 7F)” value (diabetic NOD mice [4]; Day 27) was 22.3 and 23.1 and 23.5 and 25.2 and the “Daily body weight (Figure 7F)” value (diabetic NOD mice [4]; Day 28) was 22.8 and 23.7 and 24.1 and 25.4. The “Body weight, daily monitoring” value (diabetic NOD mice [4]; diabetic WCDD301-treated mice) was “phenotypes similar to nondiabetic placebo-treated mice”.
